Assay results published in patent US10537626B2, “HSP70-derived peptide, pharmaceutical composition for treating or preventing cancer using same, immunity inducer, and method for producing antigen presenting cell” (Cytlimic Inc., priority 2014, dated 2020).
Ends that are not written are not given here.

Tests used:
HLA-A*24:02 molecule = HLA-A*24:02 molecule (Homo sapiens, UniProt P04439, D101N/D140Y/D185E/E176V/E190D/F33S/G103R/G107R/I119L/I121M/I306V/K335N/L105A/L180Q/L300P/N151K/N90K/Q86E/Q94H/R106L/R138H/R89G/T104I/T345S/V100E/W191G/Y123F); test: Binding experiment of peptide to HLA-A*24:02 molecule (C1R-A24 cells, flow cytometry); settings: for Binding Experiment Data To A*24:02: C1R-A24 cells, on ice 4 hours, negative values as printed (apparently log Kd)
Description: The binding capacity of each peptide to the HLA-A*24:02 molecule as the product of HLA-A*24:02 gene was measured using C1R-A24 cells expressing the HLA-A*24:02 molecule (the cells prepared by Prof. Masafumi Takeguchi, Kumamoto University were gifted by Assoc. Prof. Masaki Yasukawa, Ehime University with permission).
First, C1R-A24 cells were exposed to acidic conditions of pH 3.3 for 30 seconds to dissociate and remove endogenous peptides which were originally bound to the HLA-A*24:02 molecule and a light chain, β2m, which was commonly associated with HLA class I molecules. After neutralization, purified β2m was added to the C1R-A24 cells, which was then added to peptide dilution series. The mixtures were each then incubated on ice for 4 hours. The 3-molecule assembly (MHC-pep) consisting of the HLA-A*24:02 molecule, the peptide, and β2 m which had been reassociated during the incubation was stained with a fluorescent labeled monoclonal antibody, 17A12, recognizing the assembly.
Subsequently, the number of MHC-pep's per C1R-A24 cell (which is proportional to the fluorescent intensity of the above fluorescent antibody) was quantitatively measured using a fluorescent cell analyzer, FACScan (Becton, Dickinson and Company). The binding dissociation constant, Kd value, between the HLA-A*24:02 molecule and the peptide was calculated from the average fluorescent intensity per cell using a method as published in a paper (Udaka et al., Immunogenetics, 51, 816-828, 2000) by the present inventor.

HLA-A*02:01 molecule = HLA-A*02:01 molecule (Homo sapiens, UniProt P04439, D140Y/D185E/D98H/E176V/E277Q/G131W/G231S/I119V/I121R/I166T/I218V/L300P/L318F/N151K/N90K/P208A/P217A/Q86G/Q94H/R138H/R169H/T345S); test: Binding experiment of peptide to HLA-A*02:01 molecule (T2 cells, flow cytometry); settings: for Binding Experiment Data To A*02:01: T2 cells, 37° C. 4 hours, negative values as printed (apparently log Kd)
Description: T2 cells and purified β2m were added to stepwise dilution series of a peptide whose binding capacity was to be measured, which was then incubated at 37° C. for 4 hours.
Thereafter, the amount of fluorescence per cell was measured using a flow cytometer, and the dissociation constant, Kd value, was calculated using a method as published in a paper by the present inventor (Udaka et al., Immunogenetics, 51, 816-828, 2000).

HLA-A*02:06 molecule = target: T1, HLA-A*02:06 molecule (Homo sapiens, UniProt P04439, D140Y/D185E/D98H/E176V/E277Q/F33Y/G131W/G231S/I119V/I121R/I166T/I218V/L300P/L318F/N151K/N90K/P208A/P217A/Q86G/Q94H/R138H/R169H/T345S); test: Binding experiment of peptide to HLA-A*02:06 molecule (RA2.6 cells, flow cytometry); settings: for Binding Experiment Data To A*02:06: RA2.6 cells, negative values as printed (apparently log Kd)
T1 construct: expressed in transfected cells; host or cells: RA2.6 cells (mouse TAP-deficient RMAS transfected with HLA-A*02:06 cDNA, Kochi University)
Description: The binding capacity of each peptide to the HLA-A*02:06 molecule as the product of HLA-A*02:06 gene was measured using RA2.6 cells (a cell line newly prepared at Kochi University) in which cDNA of the HLA-A*02:06 gene was introduced into RMAS as a mouse TAP (transporter associated with antigen processing)-deficient cell line.
First, the RA2.6 cells were cultured overnight at 26° C. to accumulate the HLA-A*02:06 molecules unbound to the peptide on the cell surface. Any of peptide dilution series was added thereto for binding at 26° C. for 60 minutes.
Subsequently, the mixture was cultured at 35° C. for 4 hours, resulting in the denaturation of the empty HLA-A*02:06 molecule unbound to the peptide and the loss of its steric structure. A fluorescent labeled monoclonal antibody, BB7.2, specifically recognizing a peptide-bound HLA-A*02:06 molecule, was added thereto, which was then incubated on ice for 20 minutes to stain the cells.

[1] = system: CD8T cells from liver cancer patients; test: Immunity induction test of peptide (IFN-γ ELISPOT / ELISA, peptide-stimulated dendritic cells cocultured with CD8T cells); type: cell-based, human
Description: Monocytes were separated from the peripheral blood collected from a hepatocellular cancer patient according to a leukapheresis method. The separated monocytes were cultured for 6 days under addition of 800 U/ml GM-CSF and 500 U/ml IL-4. In addition, 300 U/ml TNF-α was added to the culture solution, which was then cultured for 4 days to induce mature dendritic cells. Subsequently, HSP70 mRNA was introduced thereinto by an electroporation method and thereby dendritic cells having presented an HSP70-derived antigen peptide were prepared.
Dendritic cells into which 1×10^7, 2×10^7, or 3×10^7 HSP70 mRNAs were introduced (HSP70-dendritic cells) were administered into the thigh of the hepatocellular cancer patient by subcutaneous injection (HSP70 dendritic cell therapy). The subcutaneous administration of the HSP70-dendritic cells prepared by the same method was repeated every 3 weeks. […]
Using CD8 Negative Selection Kit (from Miltenyi Biotec), CD8T cells were separated from the medium and counted. […]
A culture supernatant at day 7 after coculture of T cells with dendritic cells pulsed with each of the above peptides was diluted to the 4 levels of ×1, ×5, ×25, and ×125 to identify the dilution level falling within the limit of measurement using Human IFN-γ ELISA MAX Deluxe Set (from BioLegend Inc.). Thereafter, each sample was measured 3 times at the identified dilution level. […]

| Sequence | Binding Experiment Data To A*24:02 (HLA-A*24:02 molecule) | Binding Experiment Data To A*02:01 (HLA-A*02:01 molecule) | Binding Experiment Data To A*02:06 (HLA-A*02:06 molecule) | further results |
| --- | --- | --- | --- | --- |
| AMTKDNNLL [SEQ ID NO: 9] | −5.492 | −5.56 | −4.276 |  |
| AQIHDLVLV [SEQ ID NO: 12] |  | −6.148 |  |  |
| FYPEEISSM [SEQ ID NO: 3] | −7.664 |  |  |  |
| GVPQIEVTF [SEQ ID NO: 1] | −6.451 |  | −5.13 |  |
| ITRARFEEL [SEQ ID NO: 10] |  | −4.326 | −5.58 |  |
| KLLQDFFNG [SEQ ID NO: 4] |  | −4.959 | −5.268 |  |
| LLLDVAPLS [SEQ ID NO: 8] |  | −6.06 | −6.171 |  |
| MVLTKMKEI [SEQ ID NO: 6] |  | −4.586 | −5.533 |  |
| NLLGRFELS [SEQ ID NO: 11] |  | −4.56 | −5.175 |  |
| NQPGVLIQV [SEQ ID NO: 14] |  | −5.91 | −6.417 |  |
| SVTNAVITV [SEQ ID NO: 15] | −4.37 | −4.762 | −5.594 |  |
| VLVGGSTRI [SEQ ID NO: 5] | −6.173 | −4.86 | −5.07 |  |
| YAFNMKSAV [SEQ ID NO: 13] |  | −5.091 | −5.021 |  |
| YGAAVQAAI [SEQ ID NO: 7] | −5.502 | −4.904 | −5.372 | binding to HLA-A*24:02 molecule (in words) (HLA-A*24:02 molecule): strongly binds; binding to HLA-A*02:01 molecule (in words) (HLA-A*02:01 molecule): strongly binds; binding to HLA-A*02:06 molecule (in words) (HLA-A*02:06 molecule): strongly binds; immunogenicity (in words) [1]: high immunogenicity |
